What was measured:
Test in all cases: relative viability (nuclei count vs DMSO), 5 days (fraction); higher = more cells survive
NVP-TAE684 + Dasatinib = compound: COc1cc(N2CCC(N3CCN(C)CC3)CC2)ccc1Nc1ncc(Cl)c(Nc2ccccc2S(=O)(=O)C(C)C)n1 [NVP-TAE684] + Cc1nc(Nc2ncc(C(=O)Nc3c(C)cccc3Cl)s2)cc(N2CCN(CCO)CC2)n1 [Dasatinib] (partner 0.075 µM)
In short: (§1)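 Lung cancer cell lines in 1536-well plates were dosed by pin tool the day after seeding, either with one drug alone or with a fixed anchor-drug dose plus five library-drug doses (not always all listed) in √10 steps. After 5 days, cells were fixed and their nuclei stained in one step (final 0.05% Triton X-100, 1% formaldehyde, 1 ug/ml Hoechst), then counted on 4× images. Relative viability is the nuclei count in treated wells divided by that in vehicle wells. Values are medians of duplicate plates.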

[1] = compound: C1=CC=C2C(=C1)N=C(S2)C(C#N)C3=NC(=NC=C3)NCCC4=CN=CC=C4 + CC(=O)c1c(C)c2cnc(Nc3ccc(N4CCNCC4)cn3)nc2n(C2CCCC2)c1=O [Palbociclib] (partner 0.5 µM)
In short: as §1

Vandetanib + Foretinib = compound: COc1cc2/c(=N/c3ccc(Br)cc3F)nc[nH]c2cc1OCC1CCN(C)CC1 [Vandetanib] + COc1cc2c(Oc3ccc(NC(=O)C4(C(=O)Nc5ccc(F)cc5)CC4)cc3F)ccnc2cc1OCCCN1CCOCC1 [Foretinib] (partner 0.25 µM)
In short: as §1

NVP-TAE684 + Bortezomib = compound: COc1cc(N2CCC(N3CCN(C)CC3)CC2)ccc1Nc1ncc(Cl)c(Nc2ccccc2S(=O)(=O)C(C)C)n1 [NVP-TAE684] + CC(C)C[C@H](NC(=O)[C@H](Cc1ccccc1)NC(=O)c1cnccn1)B(O)O [Bortezomib] (partner 0.002 µM)
In short: as §1

NCI-H1437
relative viability (NVP-TAE684 + Dasatinib; first compound 0.2 µM): 0.363
relative viability (NVP-TAE684 + Dasatinib; first compound 0.6325 µM): 0.272
relative viability (NVP-TAE684 + Dasatinib; first compound 2 µM): 0.128
relative viability ([1]; first compound 0.005 µM): 0.372
relative viability ([1]; first compound 0.01581 µM): 0.329
relative viability ([1]; first compound 0.05 µM): 0.327
relative viability ([1]; first compound 0.1581 µM): 0.312
relative viability ([1]; first compound 0.5 µM): 0.304
relative viability (Vandetanib + Foretinib; first compound 0.02 µM): 1.26
relative viability (Vandetanib + Foretinib; first compound 0.06325 µM): 1.25
relative viability (Vandetanib + Foretinib; first compound 0.2 µM): 0.271
relative viability (Vandetanib + Foretinib; first compound 0.6325 µM): 1.35
relative viability (Vandetanib + Foretinib; first compound 2 µM): 1.19
relative viability (NVP-TAE684 + Bortezomib; first compound 0.2 µM): 0.452
relative viability (NVP-TAE684 + Bortezomib; first compound 0.6325 µM): 0.487
relative viability (NVP-TAE684 + Bortezomib; first compound 2 µM): 0.322

ABC-1
relative viability (NVP-TAE684 + Dasatinib; first compound 0.2 µM): 0.584
relative viability (NVP-TAE684 + Dasatinib; first compound 0.6325 µM): 0.423
relative viability (NVP-TAE684 + Dasatinib; first compound 2 µM): 0.237
relative viability ([1]; first compound 0.005 µM): 0.525
relative viability ([1]; first compound 0.05 µM): 0.597
relative viability ([1]; first compound 0.1581 µM): 0.554
relative viability ([1]; first compound 0.5 µM): 0.451
relative viability (Vandetanib + Foretinib; first compound 0.02 µM): 0.971
relative viability (Vandetanib + Foretinib; first compound 0.06325 µM): 1.03
relative viability (Vandetanib + Foretinib; first compound 0.2 µM): 0.28
relative viability (Vandetanib + Foretinib; first compound 0.6325 µM): 1
relative viability (Vandetanib + Foretinib; first compound 2 µM): 0.854
relative viability (NVP-TAE684 + Bortezomib; first compound 0.2 µM): 0.223
relative viability (NVP-TAE684 + Bortezomib; first compound 0.6325 µM): 0.256
relative viability (NVP-TAE684 + Bortezomib; first compound 2 µM): 0.169

NCI-H727
relative viability (NVP-TAE684 + Dasatinib; first compound 0.2 µM): 0.383
relative viability (NVP-TAE684 + Dasatinib; first compound 0.6325 µM): 0.273
relative viability (NVP-TAE684 + Dasatinib; first compound 2 µM): 0.232
relative viability ([1]; first compound 0.005 µM): 0.508
relative viability ([1]; first compound 0.01581 µM): 0.594
relative viability ([1]; first compound 0.05 µM): 0.64
relative viability ([1]; first compound 0.1581 µM): 0.658
relative viability ([1]; first compound 0.5 µM): 0.673
relative viability (Vandetanib + Foretinib; first compound 0.02 µM): 0.973
relative viability (Vandetanib + Foretinib; first compound 0.06325 µM): 0.831
relative viability (Vandetanib + Foretinib; first compound 0.2 µM): 0.539
relative viability (Vandetanib + Foretinib; first compound 0.6325 µM): 1.18
relative viability (Vandetanib + Foretinib; first compound 2 µM): 0.674
relative viability (NVP-TAE684 + Bortezomib; first compound 0.2 µM): 0.684
relative viability (NVP-TAE684 + Bortezomib; first compound 0.6325 µM): 0.887
relative viability (NVP-TAE684 + Bortezomib; first compound 2 µM): 0.506

PC-3 [JPC-3]
relative viability (NVP-TAE684 + Dasatinib; first compound 0.2 µM): 0.942
relative viability (NVP-TAE684 + Dasatinib; first compound 0.6325 µM): 0.979
relative viability (NVP-TAE684 + Dasatinib; first compound 2 µM): 0.649
relative viability ([1]; first compound 0.005 µM): 0.592
relative viability ([1]; first compound 0.05 µM): 0.534
relative viability ([1]; first compound 0.1581 µM): 0.532
relative viability ([1]; first compound 0.5 µM): 0.515
relative viability (Vandetanib + Foretinib; first compound 0.02 µM): 0.984
relative viability (Vandetanib + Foretinib; first compound 0.06325 µM): 0.904
relative viability (Vandetanib + Foretinib; first compound 0.2 µM): 0.936
relative viability (Vandetanib + Foretinib; first compound 0.6325 µM): 0.894
relative viability (Vandetanib + Foretinib; first compound 2 µM): 0.468
relative viability (NVP-TAE684 + Bortezomib; first compound 0.2 µM): 0.99
relative viability (NVP-TAE684 + Bortezomib; first compound 2 µM): 0.731

NCI-H1355
relative viability (NVP-TAE684 + Dasatinib; first compound 0.2 µM): 0.673
relative viability (NVP-TAE684 + Dasatinib; first compound 0.6325 µM): 0.534
relative viability (NVP-TAE684 + Dasatinib; first compound 2 µM): 0.372
relative viability ([1]; first compound 0.005 µM): 0.662
relative viability ([1]; first compound 0.01581 µM): 0.431
relative viability ([1]; first compound 0.05 µM): 0.394
relative viability ([1]; first compound 0.1581 µM): 0.412
relative viability ([1]; first compound 0.5 µM): 0.364
relative viability (Vandetanib + Foretinib; first compound 0.02 µM): 0.94
relative viability (Vandetanib + Foretinib; first compound 0.06325 µM): 0.981
relative viability (Vandetanib + Foretinib; first compound 0.2 µM): 1
relative viability (Vandetanib + Foretinib; first compound 0.6325 µM): 0.936
relative viability (Vandetanib + Foretinib; first compound 2 µM): 0.946
relative viability (NVP-TAE684 + Bortezomib; first compound 0.2 µM): 1.23
relative viability (NVP-TAE684 + Bortezomib; first compound 0.6325 µM): 1.17
relative viability (NVP-TAE684 + Bortezomib; first compound 2 µM): 0.859

HCC-827
relative viability (NVP-TAE684 + Dasatinib; first compound 0.2 µM): 0.262
relative viability (NVP-TAE684 + Dasatinib; first compound 0.6325 µM): 0.241
relative viability (NVP-TAE684 + Dasatinib; first compound 2 µM): 0.124
relative viability ([1]; first compound 0.005 µM): 0.415
relative viability ([1]; first compound 0.01581 µM): 0.597
relative viability ([1]; first compound 0.05 µM): 0.432
relative viability ([1]; first compound 0.1581 µM): 0.492
relative viability ([1]; first compound 0.5 µM): 0.512
relative viability (Vandetanib + Foretinib; first compound 0.02 µM): 1.07
relative viability (Vandetanib + Foretinib; first compound 0.06325 µM): 1
relative viability (Vandetanib + Foretinib; first compound 0.2 µM): 0.706
relative viability (Vandetanib + Foretinib; first compound 0.6325 µM): 0.296
relative viability (Vandetanib + Foretinib; first compound 2 µM): 0.169
relative viability (NVP-TAE684 + Bortezomib; first compound 0.6325 µM): 0.988
relative viability (NVP-TAE684 + Bortezomib; first compound 2 µM): 1.05

NCI-H2405
relative viability (NVP-TAE684 + Dasatinib; first compound 0.2 µM): 0.226
relative viability (NVP-TAE684 + Dasatinib; first compound 0.6325 µM): 0.178
relative viability (NVP-TAE684 + Dasatinib; first compound 2 µM): 0.154
relative viability ([1]; first compound 0.005 µM): 0.462
relative viability ([1]; first compound 0.01581 µM): 0.572
relative viability ([1]; first compound 0.05 µM): 0.543
relative viability ([1]; first compound 0.1581 µM): 0.533
relative viability ([1]; first compound 0.5 µM): 0.461
relative viability (Vandetanib + Foretinib; first compound 0.02 µM): 1.01
relative viability (Vandetanib + Foretinib; first compound 0.06325 µM): 0.81
relative viability (Vandetanib + Foretinib; first compound 0.2 µM): 1.08
relative viability (Vandetanib + Foretinib; first compound 0.6325 µM): 1.07
relative viability (Vandetanib + Foretinib; first compound 2 µM): 0.99
relative viability (NVP-TAE684 + Bortezomib; first compound 0.2 µM): 0.941
relative viability (NVP-TAE684 + Bortezomib; first compound 0.6325 µM): 0.986
relative viability (NVP-TAE684 + Bortezomib; first compound 2 µM): 0.82

NCI-H650
relative viability (NVP-TAE684 + Dasatinib; first compound 0.2 µM): 0.513
relative viability (NVP-TAE684 + Dasatinib; first compound 0.6325 µM): 0.376
relative viability (NVP-TAE684 + Dasatinib; first compound 2 µM): 0.262
relative viability ([1]; first compound 0.005 µM): 0.321
relative viability ([1]; first compound 0.01581 µM): 0.336
relative viability ([1]; first compound 0.05 µM): 0.301
relative viability ([1]; first compound 0.1581 µM): 0.321
relative viability ([1]; first compound 0.5 µM): 0.323
relative viability (Vandetanib + Foretinib; first compound 0.02 µM): 1.04
relative viability (Vandetanib + Foretinib; first compound 0.06325 µM): 1.03
relative viability (Vandetanib + Foretinib; first compound 0.6325 µM): 1.02
relative viability (Vandetanib + Foretinib; first compound 2 µM): 0.98
relative viability (NVP-TAE684 + Bortezomib; first compound 0.2 µM): 0.784
relative viability (NVP-TAE684 + Bortezomib; first compound 0.6325 µM): 0.562
relative viability (NVP-TAE684 + Bortezomib; first compound 2 µM): 0.614

HCC-366
relative viability (NVP-TAE684 + Dasatinib; first compound 0.2 µM): 0.827
relative viability (NVP-TAE684 + Dasatinib; first compound 0.6325 µM): 0.508
relative viability (NVP-TAE684 + Dasatinib; first compound 2 µM): 0.233
relative viability ([1]; first compound 0.005 µM): 0.302
relative viability ([1]; first compound 0.01581 µM): 0.44
relative viability ([1]; first compound 0.05 µM): 0.364
relative viability ([1]; first compound 0.1581 µM): 0.375
relative viability ([1]; first compound 0.5 µM): 0.282
relative viability (Vandetanib + Foretinib; first compound 0.02 µM): 1.02
relative viability (Vandetanib + Foretinib; first compound 0.06325 µM): 0.941
relative viability (Vandetanib + Foretinib; first compound 0.2 µM): 0.501
relative viability (Vandetanib + Foretinib; first compound 0.6325 µM): 0.893
relative viability (Vandetanib + Foretinib; first compound 2 µM): 0.907
relative viability (NVP-TAE684 + Bortezomib; first compound 0.2 µM): 0.855
relative viability (NVP-TAE684 + Bortezomib; first compound 0.6325 µM): 1.08
relative viability (NVP-TAE684 + Bortezomib; first compound 2 µM): 1.17

NCI-H838
relative viability (NVP-TAE684 + Dasatinib; first compound 0.2 µM): 0.295
relative viability (NVP-TAE684 + Dasatinib; first compound 0.6325 µM): 0.23
relative viability (NVP-TAE684 + Dasatinib; first compound 2 µM): 0.238
relative viability ([1]; first compound 0.005 µM): 0.223
relative viability ([1]; first compound 0.01581 µM): 0.211
relative viability ([1]; first compound 0.05 µM): 0.216
relative viability ([1]; first compound 0.1581 µM): 0.214
relative viability ([1]; first compound 0.5 µM): 0.213
relative viability (Vandetanib + Foretinib; first compound 0.02 µM): 1.08
relative viability (Vandetanib + Foretinib; first compound 0.06325 µM): 1.01
relative viability (Vandetanib + Foretinib; first compound 0.2 µM): 0.282
relative viability (Vandetanib + Foretinib; first compound 0.6325 µM): 1.06
relative viability (Vandetanib + Foretinib; first compound 2 µM): 1.05
relative viability (NVP-TAE684 + Bortezomib; first compound 0.2 µM): 0.86
relative viability (NVP-TAE684 + Bortezomib; first compound 0.6325 µM): 0.902
relative viability (NVP-TAE684 + Bortezomib; first compound 2 µM): 0.399

— the supplement of paper PMC10307832
